Results reported in patent publication US20250213519A1, “SYNERGY FOR INCREASING INSULIN SENSITIVITY” (Board of Supervisors of Louisiana State University and …, priority 2022, published 2025).
Entries after “also recorded” stand apart in the source; their conditions may differ.

Assays:
human adipocytes [1] = test: mRNA levels (qRT-PCR) in human adipocyte cultures treated for seven days; type: cell-based; details: for UCP1 gene expression, carotenoid combined with NR: 2 μM carotenoid + 8 μM NR, seven days, vs NR alone; for gene expression, β-carotene added to naringenin: 2 μM β-carotene + 8 μM naringenin extract, 7 days
Excerpt: In adipocytes, CDK5 inhibitors reduce adipogenesis and increase genes for energy expenditure by altering PPARγ target gene selection. We measured the expression of the PPARα/γ direct target gene UCP1 after treating human adipocyte cultures with CDK5-inhibiting flavonols combined with naringenin for seven days.
Human adipose-derived stem cells from overweight and obese female donors were purchased from LaCell, LLC (New Orleans, Louisiana) or isolated from lipoaspirate waste donated post-surgery from women with obesity using methods as previously described (31). Cells were seeded, maintained until two days after becoming confluent, and differentiated into adipocytes in the presence of rosiglitazone and isobutylmethylxanthine for five days as previously described (25). […], dissolved in DMSO at 1000×, started 5 days after the differentiation period and lasted for seven days in adipocyte maintenance medium with heat inactivated serum, before RNA and protein were isolated from adipocyte cultures.
Quantitative reverse transcriptase and real-time PCR were conducted in one reaction with the gene-specific reverse PCR primer also priming the cDNA synthesis as previously described (25). Primer-probe sequences for UCP1, GLUT4, ATGL, adiponectin, PGC-1α and ribosomal RPL13A, used to adjust target gene values for total RNA in each sample, have been previously reported (25). […] Predesigned human primer and probe sets from Thermofisher Scientific are PM20D1 Hs00399438_m1; ANGPTL4 Hs00211522_m1; GDF11 Hs00195156_m1; S100B Hs00902901_m1.

human adipocytes [2] = test: Protein levels by Western blotting in human adipocytes treated for seven days; type: cell-based; details: 8 μM NR or 50 nM myricetin, 7 days
Excerpt: Since we saw an increase in SIRT3 mRNA and myricetin upregulates SIRT3 protein in adipocytes from mice, we analyzed levels of SIRT3 protein in human adipocytes treated for seven days with the same concentrations of compounds. Protein was isolated from adipocytes and analyzed on immunoblots probed with antibodies that specifically bind human SIRT3 or human β-actin. […] However, adding myr to NR+BC boosted SIRT3 protein by 37%.
Human adipose-derived stem cells from overweight and obese female donors were purchased from LaCell, LLC (New Orleans, Louisiana) or isolated from lipoaspirate waste donated post-surgery from women with obesity using methods as previously described (31). Cells were seeded, maintained until two days after becoming confluent, and differentiated into adipocytes in the presence of rosiglitazone and isobutylmethylxanthine for five days as previously described (25). Treatments of adipocytes with 8 μM NR and 2 μM carotenoid, dissolved in DMSO at 1000×, started 5 days after the differentiation period and lasted for seven days in adipocyte maintenance medium with heat inactivated serum, before RNA and protein were isolated from adipocyte cultures.
Whole cell protein was isolated from differentiated cell cultures after treatment for seven days, lysed with RIPA buffer containing protease and phosphatase inhibitors, and pushed through a 20-gauge needle four times to disrupt organelles. Fifty micrograms of total cell protein were loaded per lane and resolved in 7.5% SDS-PAGE gels, transferred to nitrocellulose membranes, and probed overnight at 4° C. with specific primary antibodies. Anti-rabbit or -mouse secondary antibodies conjugated to horseradish peroxidase were used for detection of target proteins. Image J was used to quantify protein bands on Western blots. To adjust for variations in total protein loaded in each lane, β-actin was used.

human fat cells = test: Oxygen consumption rate of human fat cells; type: cell-based
Excerpt: Referring to FIG. 8, cells consume oxygen while metabolizing fat for thermogenic energy expenditure, and we directly measured oxygen consumption rate.

clinical = details: human, in vivo, 150 mg
[3] = Case study of naringenin in an individual with obesity and diabetes; type: in vivo, human
Procedure: Next, we gave 150 mg of naringenin extract in 500 mg of orange extract three times a day by capsule to a person who was obese and had type 2 diabetes that was only treated with diet. They took the capsule three times a day for 8 weeks without going on a diet or changing their exercise habits. […] For an obesity drug to get approval for weight loss it should cause a loss of 5%, so the results were close to what one can expect for a drug. Their insulin resistance went down by 20% and their metabolic rate went up by 3 percent.
We went back to the person whom we tested at 150 mg three times a day with naringenin, and tested them with 300 mg three times a day. They maintained the loss on the lower dose of naringenin and had also lost further weight, so they were below their natural weight set point.

human adipocytes [4] = test: mRNA levels (qRT-PCR) in human adipocyte cultures treated for seven days; type: cell-based; details: for gene expression, carotenoid alone: 2 μM carotenoid individually, seven days
human adipocytes [5] = test: Protein levels by Western blotting in human adipocytes treated for seven days; type: cell-based
human adipocytes [6] = test: Lipolysis assay (agonist-stimulated glycerol release); type: cell-based; details: agonist exposure 4.5 hours, white and NRBC-treated adipocytes
Procedure: Thermogenesis is fueled by lipolysis, so we determined whether agonist-stimulated glycerol release, a measure of lipolysis, reflected the increases in receptors and lipolysis machinery in NRBC-treated adipocytes. First, adipocyte cultures from four donors who had obesity were treated with cell medium (untreated control cells) or NRBC for seven days. On the day of the acute lipolysis assay, cells were exposed to the individual receptor agonists for […] in buffer and glycerol released into the cell supernatant was measured. Non-hydrolyzable 8-cpt-cAMP, a potent activator of PKA signaling, was also evaluated in each experiment as a positive control since it bypasses individual receptors and measures the maximum capacity for lipolysis (36). The βARs, PTHR, MC1R, GPER and ADORA2B are all stimulatory G-protein (Gs) coupled receptors and signal through the CAMP-PKA signal transduction mechanism. NPR1 is not a Gs-coupled receptor and signals through an alternate mechanism of guanylate cyclase-cGMP-protein kinase G (PKG).
Cells were differentiated in 96-well plates and treated with cell medium (untreated) or NRBC for seven days. On the day of the lipolysis assay, cells were exposed for 4.5 hours to buffer (KRB with 1% BSA) or receptor agonists dissolved in buffer. Agonists were used at concentrations shown to give maximum responses and were: 8-Cpt-cAMP 200 μM non-hydrolyzable PKA activator of maximum stimulated lipolysis (cAMP) (36), atrial natriuretic peptide 0.1 μM for NPR1 and NPR3(37), parathyroid hormone (amino acids 1-34) 1 μM for PTHR(38), isoproterenol 1 μM all βARs and dobutamine 1 μM for β1AR (39), estradiol 1 μM for GPER (40), growth hormone 250 ng/ml for GHR (41), adrenocorticotropin hormone 1 μM for MC1R (42), bile acid chenodeoxycholic acid 30 μM for TGR5(43), adenosine 1 μM for ADORA1 and ADORA2B (44), and menthol 100 μM for TRPM8(45). Supernatants were removed for measurement of glycerol released using Glycerol Reagent A, and concentrations were determined using a standard curve. Data are from four or five experiments each with cells from different donors with BMI from 27 to 36.

CDK5 = CDK5 (Homo sapiens, UniProt Q00535); details: cited from earlier work
[7] = 150 mg three times a day, 8 weeks
[8] = 150 mg three times a day, eight weeks

CDK5, sequence (Q00535 whole entry, species assumed): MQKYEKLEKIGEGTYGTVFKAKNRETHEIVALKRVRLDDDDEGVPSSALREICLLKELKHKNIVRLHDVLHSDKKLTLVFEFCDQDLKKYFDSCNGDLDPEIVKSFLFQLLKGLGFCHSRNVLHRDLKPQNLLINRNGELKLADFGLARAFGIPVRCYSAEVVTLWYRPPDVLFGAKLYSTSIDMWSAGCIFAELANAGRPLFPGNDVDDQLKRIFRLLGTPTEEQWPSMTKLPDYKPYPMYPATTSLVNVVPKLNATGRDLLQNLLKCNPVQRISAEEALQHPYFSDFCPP
CDK5, sequence (Q15078 whole entry partner, species assumed): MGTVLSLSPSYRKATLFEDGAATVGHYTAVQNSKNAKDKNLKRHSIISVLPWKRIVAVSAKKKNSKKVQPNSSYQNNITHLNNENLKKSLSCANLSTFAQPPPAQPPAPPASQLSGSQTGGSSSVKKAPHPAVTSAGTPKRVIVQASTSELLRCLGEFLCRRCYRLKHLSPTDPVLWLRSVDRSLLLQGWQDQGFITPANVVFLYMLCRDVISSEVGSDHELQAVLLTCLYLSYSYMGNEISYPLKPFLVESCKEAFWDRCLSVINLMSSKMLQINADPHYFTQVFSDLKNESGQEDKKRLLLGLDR

With `O=C1C[C@@H](c2ccc(O)cc2)Oc2cc(O)cc(O)c21` [naringenin] the “UCP1 and GLUT4 mRNA, naringenin concentration curve” value (human adipocytes [1]; naringenin 0.03 μM to 8 μM with constant 3 μM myricetin) was “increased gene expression in a concentration-dependent manner”, the adiponectin production (human adipocytes [1]; naringenin alone (FIG. 9)) was “increased production of a secreted hormone (adiponectin)” and the “SIRT3 protein levels, single agent” value (human adipocytes [2]) was “upregulate SIRT3 protein levels”. The “basal and maximal energy expenditure (oxygen consumption rate)” value (human fat cells) was “strong inducer of basal and maximal energy expenditure”, the Cmax (clinical) was roughly 16 µM and the half-life (clinical) was 3 h. For the same compound, the body weight loss [3, 7] was 2.3%, the “decrease in insulin resistance” value [3, 7] was 20% and the “increase in metabolic rate” value [3, 7] was 3%. The “increase in energy expenditure” value [3, 8] was 3.5%, the “reduction of fasting insulin concentrations” value [3, 8] was 20% and the “body weight at higher dose” value ([3]; 300 mg three times a day, same person) was “only maintained their weight loss without adding further weight loss”. For the same compound, the diabetes status ([3]; after weight loss following the 150 mg dose) was “resolved their diabetes”, the UCP-1 expression (human adipocytes [4]; human fat cells in culture and adult adipose specimens, naringenin alone) was “caused an increase in Uncoupling Protein-1 (UCP-1)” and the “PGC-1α protein levels vs untreated control” value (human adipocytes [5]; 8 μM NR, 2 μM BC, 7 days) was “approximately two-fold”. The “protein levels of PPARα, PPARγ, PGC-1α and NAMPT” value (human adipocytes [5]; NR alone) was “did not upregulate protein levels” and the “UCP-1 and adiponectin protein levels” value (human adipocytes [5]; naringenin 8 μM over 7 days (FIG. 10)) was “protein levels for UCP-1 and adiponectin increased”.

In the case of `CC1=C(/C=C/C(C)=C/C=C/C(C)=C/C=C/C=C(C)/C=C/C=C(C)/C=C/C2=C(C)CCCC2(C)C)C(C)(C)CCC1` [β-carotene, β-Carotene], the “SIRT3 mRNA expression” value (human adipocytes [1]; 2 μM BC added to NR+myr, vs NR or NR+myricetin) is reported as “significantly increased SIRT3 expression”, the “UCP1 gene expression, carotenoid combined with NR” value (shortened to “UCP1 gene expression”) (human adipocytes [1]; listed as BC) is reported as “synergistic; also recorded: synergistically enhanced levels of UCP1” and the “gene expression, β-carotene added to naringenin” value (human adipocytes [1]) is reported as “synergistically enhances the effects of naringenin on gene expression; also recorded: synergistically induces gene expression”. For the same compound, the “gene expression, β-carotene added to naringenin” value (human adipocytes [1]; listed as beta-carotene) was “synergistically increases expression of genes for thermogenic energy expenditure and insulin sensitivity” and the “gene expression, carotenoid alone” value (human adipocytes [4]) was “no effect on gene expression”.

In the case of `CC1=C[C@H](O)CC(C)(C)[C@H]1/C=C/C(C)=C/C=C/C(C)=C/C=C/C=C(C)/C=C/C=C(C)/C=C/C1=C(C)C[C@@H](O)CC1(C)C` [lutein], the “UCP1 gene expression” value (human adipocytes [1]) is reported as “synergistic; also recorded: synergistically enhanced levels of UCP1” and the “gene expression, carotenoid alone” value (human adipocytes [4]) is reported as “no effect on gene expression”.

For `Nc1ncnc2c1ncn2[C@@H]1O[C@H](CO)[C@@H](O)[C@H]1O` [adenosine], the “lipolysis stimulated by the receptor agonist itself” value (from here on “lipolysis stimulated”) (human adipocytes [6]) was “no effect”.

With parathyroid hormone (1-34) [PTH] the “lipolysis stimulated” value (human adipocytes [6]) was “highest in control white adipocytes”.

In the case of `C[C@]12CC[C@@H]3c4ccc(O)cc4CC[C@H]3[C@@H]1CC[C@@H]2O` [estrogen, estradiol], the “lipolysis stimulated” value (human adipocytes [6]) is reported as “small reduction in lipolysis; also recorded: neither growth hormone nor estrogen stimulated lipolysis”.

In the case of “adrenocorticotropin hormone (SYSMEHFRWGKPVGKKRRPVKVYPNGAEDESAEAFPLEF; Corticotropin; UniProt P01189 138-176, looked up) [ACTH, MC1R agonist used in lipolysis assay]”, the “lipolysis stimulated” value (human adipocytes [6]) is reported as “no effect”.

In the case of `O=c1c(O)c(-c2ccc(O)cc2)oc2cc(O)cc(O)c12` [kaempferol, reference compound], the “CDK5 kinase activity inhibition EC50 (in words)” value (CDK5) is given as “low micromolar range” and the EC50 (CDK5; read-out: CDK5 inhibition EC50) is given as 66 µM.

In the case of `CC(C)=CCC/C(C)=C/C=C/C(C)=C/C=C/C(C)=C/C=C/C=C(C)/C=C/C=C(C)/C=C/C=C(\C)CCC=C(C)C` [lycopene], the “UCP1 gene expression” value (human adipocytes [1]) is reported as “did not alter NR-stimulated UCP1 levels”, the “UCP1 gene expression” value (human adipocytes [1]; listed as Lycopene) is reported as “did not alter the NR response” and the “gene expression, carotenoid alone” value (human adipocytes [4]) is reported as “no effect on gene expression”.

In the case of “growth hormone: human pituitary growth hormone, GHR agonist in lipolysis assay”, the “lipolysis stimulated” value (human adipocytes [6]) is reported as “neither growth hormone nor estrogen stimulated lipolysis”.
